US9249102B2 (priority 2012, dated 2016)
Like-named read-outs stand apart in the source and are kept apart here.

What was measured:
[1] = Method G: permeability in the Caco-2/TC7 in vitro model; settings: human, Caco-2, pH 6.5
Haemonchus contortus = assay: Method A: Haemonchus contortus L1 larvae, microtitre plate screen; settings: 96 h, read-out: motility inhibition
[2] = test system: microfilaria of Dirofilaria immitis; assay: Method F: microfilaria of Dirofilaria immitis, survival at 24 hours
Cooperia oncophora = assay: Method C: Cooperia oncophora L1 larvae in vitro; settings: 96 h, read-out: inhibition of motility
[3] = survival of microfilaria at 24 hours

## O=C(CO[C@H]1CC[C@H](Nc2ccc([N+](=O)[O-])c(C(F)(F)F)c2)CC1)N1CCN(c2cnc3ccccc3c2)CC1 [Compound 336, 2-[4-[4-nitro-3-(trifluoromethyl)anilino]cyclohexoxy]-1-[4-(3-quinolyl)piperazin-1-yl]ethanone]
[1]
  Papp A→B at 20 μM: 7.9 ×10⁻⁶ cm/s
Haemonchus contortus
  inhibition at 5 µg/mL: ≥ 90%

## N#Cc1ccc(N[C@H]2CC[C@H](OCC(=O)N3CCN(Cc4nc5cc(Cl)ccc5s4)CC3)CC2)cc1C(F)(F)F [Compound 292, 4-[[4-[2-[4-[(5-chloro-1,3-benzothiazol-2-yl)methyl]piperazin-1-yl]-2-oxo-ethoxy]cyclohexyl]amino]-2-(trifluoromethyl)benzonitrile]
[2]
  EC50: < 1 µg/mL
[1]
  Papp A→B at 20 μM: 8.3 ×10⁻⁶ cm/s
Haemonchus contortus
  inhibition at 5 µg/mL: ≥ 90%

## O=C(CO[C@H]1CC[C@H](Nc2ccc([N+](=O)[O-])c(C(F)(F)F)c2)CC1)N1CCN(Cc2ccc3cc(C(F)(F)F)ccc3n2)CC1 [Compound 332, 2-[4-(4-nitro-3-trifluoromethyl-phenylamino)-cyclohexyloxy]-1-[4-(6-trifluoromethyl-quinolin-2-ylmethyl)-piperazin-1-yl]-ethanone]
[1]
  Papp A→B at 20 μM: 6.5 ×10⁻⁶ cm/s
Haemonchus contortus
  inhibition at 5 µg/mL: ≥ 90%

## O=C(COc1ccc(Nc2ccc([N+](=O)[O-])c(C(F)(F)F)c2)cc1)N1CCN(CC2Cc3cc(C(F)(F)F)ccc3O2)CC1 (stereo not drawn) [Compound 187, 2-(4-[[4-nitro-3-(trifluoromethyl)phenyl]amino]phenoxy)-1-(4-[[5-(trifluoromethyl)-2,3-dihydro-1-benzofuran-2-yl]methyl]piperazin-1-yl)ethan-1-one]
[2]; [3]
  EC50: < 1 µg/mL
[1]
  Papp A→B at 20 μM: 5.5 ×10⁻⁶ cm/s
Haemonchus contortus
  inhibition at 5 µg/mL: ≥ 90%

## CN(c1ccc([N+](=O)[O-])c(C(F)(F)F)c1)[C@H]1CC[C@H](OCC(=O)N2CCN(Cc3cc4cc(C(F)(F)F)ccc4o3)CC2)CC1 [Compound 256, 2-[[4-[methyl[4-nitro-3-(trifluoromethyl)phenyl]amino]cyclohexyl]oxy]-1-(4-[[5-(trifluorom-ethyl)-1-benzofuran-2-yl]methyl]piperazin-1-yl)ethan-1-one]
[2]; [3]
  EC50: < 1 µg/mL
[1]
  Papp A→B at 20 μM: 5.4 ×10⁻⁶ cm/s
Haemonchus contortus
  inhibition at 5 µg/mL: ≥ 90%

## O=C(CO[C@H]1CC[C@H](Nc2ccc([N+](=O)[O-])c(C(F)(F)F)c2)CC1)N1CCN(Cc2cc3ccc(Cl)cc3o2)CC1 [Compound 322, 2-[(4-[[4-nitro-3-(trifluoromethyl)phenyl]amino]cyclohexyl)-oxy]1-[4-(6-chlorobenzofuran-2-ylmethyl)piperazin-1-yl]ethan-1-one]
[1]
  Papp A→B at 20 μM: 7.9 ×10⁻⁶ cm/s
Haemonchus contortus
  inhibition at 5 µg/mL: ≥ 90%

## O=C(NCCO[C@H]1CC[C@H](Nc2ccc([N+](=O)[O-])c(C(F)(F)F)c2)CC1)C(=O)NCc1cc2cc(F)ccc2o1 [Compound 221, N^1-((5-fluorobenzofuran-2-yl)methyl)-N^2-(2-(4-(4-nitro-3-(trifluoromethyl)phenylamino)cyclohexyloxy)ethyl)oxalamide]
[2]; [3]
  EC50: < 1 µg/mL
[1]
  Papp A→B at 20 μM: 7.5 ×10⁻⁶ cm/s

## N#Cc1ccc(N[C@H]2CC[C@H](OCC(=O)N3CCN(Cc4ccc5ccc(C(F)(F)F)cc5n4)CC3)CC2)cc1C(F)(F)F [Compound 333, 4-(4-{2-oxo-2-[4-(7-trifluoromethyl-quinolin-2-ylmethyl)-piperazin-1-yl]-ethoxy}-cyclohexylamino)-2-trifluoromethyl-benzonitrile]
[1]
  Papp A→B at 20 μM: 8.1 ×10⁻⁶ cm/s
Haemonchus contortus
  inhibition at 5 µg/mL: ≥ 90%

## O=C(NCCO[C@H]1CC[C@H](Nc2ccc([N+](=O)[O-])c(C(F)(F)F)c2)CC1)C(=O)NCc1cc2cc(Cl)ccc2o1 [Compound 222]
[2]; [3]
  EC50: < 0.1 µg/mL
[1]
  Papp A→B at 20 μM: 5 ×10⁻⁶ cm/s
Haemonchus contortus
  inhibition at 5 µg/mL: ≥ 90%

## O=C(CO[C@H]1CC[C@H](Nc2ccc([N+](=O)[O-])c(C(F)(F)F)c2)CC1)N1CCN(Cc2nc3cc(F)ccc3o2)CC1 [Compound 285, 2-[(4-[[4-nitro-3-(trifluoromethyl)phenyl]amino]cyclohexyl)-oxy]1-[4-(5-fluorobenzoxazol-2-ylmethyl)piperazin-1-yl]ethan-1-one]
[1]
  Papp A→B at 20 μM: 12 ×10⁻⁶ cm/s
Haemonchus contortus
  inhibition at 5 µg/mL: ≥ 90%

## O=C(CO[C@H]1CC[C@H](Nc2ccc([N+](=O)[O-])c(C(F)(F)F)c2)CC1)N1CCN(CC2Cc3ccccc3O2)CC1 (stereo partly drawn) [Compound 24, 1-[4-(2,3-dihydro-1-benzofuran-2-ylmethyl)piperazin-1-yl]-2-[(4-[[4-nitro-3-(trifluoromethyl)phenyl]amino]cyclohexyl)oxy]ethan-1-one]
[2]; [3]
  EC50: < 1 µg/mL
[1]
  Papp A→B at 20 μM: 9.7 ×10⁻⁶ cm/s
Haemonchus contortus
  inhibition at 5 µg/mL: ≥ 90%

## O=C(CO[C@H]1CC[C@H](Nc2ccc([N+](=O)[O-])c(C(F)(F)F)c2)CC1)N1CCN(Cc2ccc3c(C(F)(F)F)cccc3n2)CC1 [Compound 329, 2-[4-(4-nitro-3-trifluoromethyl-phenylamino)-cyclohexyloxy]-1-[4-(5-trifluoromethyl-quinolin-2-ylmethyl)-piperazin-1-yl]-ethanone]
[1]
  Papp A→B at 20 μM: 5.6 ×10⁻⁶ cm/s
Haemonchus contortus
  inhibition at 5 µg/mL: ≥ 90%

## N#Cc1ccc(N[C@H]2CC[C@H](OCC(=O)N3CCN(c4cnc5ccccc5c4)CC3)CC2)cc1C(F)(F)F [Compound 335, 4-[[4-[2-oxo-2-[4-(3-quinolyl)piperazin-1-yl]ethoxy]cyclohexyl]amino]-2-(trifluoromethyl)benzonitrile]
[1]
  Papp A→B at 20 μM: 15 ×10⁻⁶ cm/s
Haemonchus contortus
  inhibition at 5 µg/mL: ≥ 90%

## Cc1cc(N2CCN(C(=O)CO[C@H]3CC[C@H](Nc4ccc([N+](=O)[O-])c(C(F)(F)F)c4)CC3)CC2)nc2ccc(Cl)cc12 [Compound 270, 1-[4-(6-chloro-4-methyl-2-quinolyl)piperazin-1-yl]-2-[4-[4-nitro-3-(trifluoromethyl)anilino]cyclohexoxy]ethanone]
[2]; [3]
  EC50: < 1 µg/mL
Cooperia oncophora
  inhibition at 5 µg/mL: ≥ 90%
Haemonchus contortus
  inhibition at 5 µg/mL: ≥ 90%

## O=C(CO[C@H]1CC[C@H](Nc2ccc([N+](=O)[O-])c(C(F)(F)F)c2)CC1)N1CCN(CC2Cc3cc(-c4ccc(F)cc4)ccc3O2)CC1 (stereo partly drawn) [Compound 310, 1-{4-[5-(4-fluoro-phenyl)-2,3-dihydro-benzofuran-2-ylmethyl]-piperazin-1-yl}-2-[4-(4-nitro-3-trifluoromethyl-phenylamino)-cyclohexyloxy]-ethanone]
[2]; [3]
  EC50: < 0.1 µg/mL
Cooperia oncophora
  inhibition at 5 µg/mL: ≥ 90%
Haemonchus contortus
  inhibition at 5 µg/mL: ≥ 90%

## N#Cc1ccc(N[C@H]2CC[C@H](OCC(=O)N3CCN(CC4Cc5cc(C(F)(F)F)ccc5O4)CC3)CC2)cc1C(F)(F)F (stereo partly drawn) [Compound 84, 4-([4-[2-oxo-2-(4-[[5-(trifluoromethyl)-2,3-dihydro-1-benzofuran-2-yl]methyl]piperazin-1-yl)ethoxy]cyclohexyl]amino)-2-(trifluoromethyl)benzonitrile]
[2]
  EC50: < 5 µg/mL
[1]
  Papp A→B at 20 μM: 5.3 ×10⁻⁶ cm/s
Haemonchus contortus
  inhibition at 5 µg/mL: ≥ 90%

## O=C(CO[C@H]1CC[C@H](Nc2ccc([N+](=O)[O-])c(C(F)(F)F)c2)CC1)N1CCN(c2nc3cc(F)ccc3s2)CC1 [Compound 237, 1-[4-(5-fluoro-1,3-benzothiazol-2-yl)piperazin-1-yl]-2-[[4-[[4-nitro-3-(trifluoromethyl)pheny-1]amino]cyclohexyl]oxy]ethan-1-one]
[2]; [3]
  EC50: < 0.1 µg/mL
Cooperia oncophora
  inhibition at 5 µg/mL: ≥ 90%
Haemonchus contortus
  inhibition at 5 µg/mL: ≥ 90%

## O=C(CO[C@H]1CC[C@H](Nc2ccc([N+](=O)[O-])c(C(F)(F)F)c2)CC1)N1CCN(Cc2nc3cc(Cl)ccc3o2)CC1 [Compound 287, 2-[(4-[[4-nitro-3-(trifluoromethyl)phenyl]amino]cyclohexyl)-oxy]1-[4-(5-chlorobenzoxazol-2-ylmethyl)piperazin-1-yl]ethan-1-one]
[2]; [3]
  EC50: < 5 µg/mL
[1]
  Papp A→B at 20 μM: 11 ×10⁻⁶ cm/s
Haemonchus contortus
  inhibition at 5 µg/mL: ≥ 90%

## N#Cc1ccc(N[C@H]2CC[C@H](OCC(=O)N3CCN(CC4Cc5cc(Cl)ccc5O4)CC3)CC2)cc1C(F)(F)F (stereo partly drawn) [Compound 82]
[1]
  Papp A→B at 20 μM: 7.1 ×10⁻⁶ cm/s
Haemonchus contortus
  inhibition at 5 µg/mL: ≥ 90%

## CC(c1cc2cc(Cl)ccc2o1)N1CCN(C(=O)CO[C@H]2CC[C@H](Nc3ccc([N+](=O)[O-])c(C(F)(F)F)c3)CC2)CC1 (stereo partly drawn) [Compound 300]
[2]; [3]
  EC50: < 0.1 µg/mL
Cooperia oncophora
  inhibition at 5 µg/mL: ≥ 90%
Haemonchus contortus
  inhibition at 5 µg/mL: ≥ 90%

## N#Cc1ccc(N[C@H]2CC[C@H](OCC(=O)N3CCN(Cc4cc5cc(C(F)(F)F)ccc5o4)CC3)CC2)cc1C(F)(F)F [Compound 306, 4-(4-{2-oxo-2-[4-(5-trifluoromethyl-benzofuran-2-ylmethyl)-piperazin-1-yl]-ethoxy}-cyclohexylamino)-2-trifluoromethyl-benzonitrile]
[2]
  EC50: < 0.1 µg/mL
[1]
  Papp A→B at 20 μM: 9 ×10⁻⁶ cm/s
Haemonchus contortus
  inhibition at 5 µg/mL: ≥ 90%

## C[C@@H]1CN(CC2Cc3cc(F)ccc3O2)[C@@H](C)CN1C(=O)CO[C@H]1CC[C@H](Nc2ccc([N+](=O)[O-])c(C(F)(F)F)c2)CC1 (stereo partly drawn) [Compound 307, 1-[(2R,5S)-4-(5-fluoro-2,3-dihydro-benzofuran-2-ylmethyl)-2,5-dimethyl-piperazin-1-yl]-2-[4-(4-nitro-3-trifluoromethyl-phenylamino)-cyclohexyloxy]-ethanone]
[2]; [3]
  EC50: < 0.1 µg/mL
Cooperia oncophora
  inhibition at 5 µg/mL: ≥ 90%
Haemonchus contortus
  inhibition at 5 µg/mL: ≥ 90%

## N#Cc1ccc(N[C@H]2CC[C@H](OCC(=O)N3CCN(Cc4ccc5cc(C(F)(F)F)ccc5n4)CC3)CC2)cc1C(F)(F)F [Compound 334, 4-(4-{2-oxo-2-[4-(6-trifluoromethyl-quinolin-2-ylmethyl)-piperazin-1-yl]-ethoxy}-cyclohexylamino)-2-trifluoromethyl-benzonitrile]
[1]
  Papp A→B at 20 μM: 11.9 ×10⁻⁶ cm/s
Haemonchus contortus
  inhibition at 5 µg/mL: ≥ 90%

## COc1ccc2oc(CN3CCN(C(=O)CO[C@H]4CC[C@H](Nc5ccc([N+](=O)[O-])c(C(F)(F)F)c5)CC4)CC3)cc2c1 [Compound 323, 2-[(4-[[4-nitro-3-(trifluoromethyl)phenyl]amino]cyclohexyl)-oxy]1-[4-(5-methoxybenzofuran-2-ylmethyl)piperazin-1-yl]ethan-1-one]
[1]
  Papp A→B at 20 μM: 11.9 ×10⁻⁶ cm/s
Haemonchus contortus
  inhibition at 5 µg/mL: ≥ 90%

## O=C(CO[C@H]1CC[C@H](Nc2ccc([N+](=O)[O-])c(C(F)(F)F)c2)CC1)N1CCN(C(=O)C2Cc3cc(F)ccc3O2)CC1 (stereo partly drawn) [Compound 80, 1-[4-(5-fluoro-2,3-dihydro-benzofuran-2-carbonyl)-piperazin-1-yl]-2-[4-(4-nitro-3-trifluoromethyl-phenylamino)-cyclohexyloxy]-ethanone]
[1]
  Papp A→B at 20 μM: 12.1 ×10⁻⁶ cm/s
Haemonchus contortus
  inhibition at 5 µg/mL: ≥ 90%
